Km, Ki and IC50 data for 8 molecules are collected here from ChEMBL document CHEMBL1156686, “Xanthine oxidase-activated prodrugs of thymidine phosphorylase inhibitors” (Eur J Med Chem, 2008).

Data set [1] concerns the target T1, Xanthine dehydrogenase/oxidase (Bos taurus, UniProt P80457). As to conditions: cattle.
For data set [2], the target named is T1, Xanthine dehydrogenase/oxidase. The data set is described as follows: Inhibition of bovine xanthine oxidase using xanthine as a substrate.
The target is the same in data set [3]. The data set is described as follows: Inhibition of bovine xanthine oxidase using hypoxanthine as a substrate.
Data set [4] in a line: Inhibition of horse liver recombinant thymidine phosphorylase. The arrangement: species or system Equus caballus.

T1 sequence (P80457 whole entry): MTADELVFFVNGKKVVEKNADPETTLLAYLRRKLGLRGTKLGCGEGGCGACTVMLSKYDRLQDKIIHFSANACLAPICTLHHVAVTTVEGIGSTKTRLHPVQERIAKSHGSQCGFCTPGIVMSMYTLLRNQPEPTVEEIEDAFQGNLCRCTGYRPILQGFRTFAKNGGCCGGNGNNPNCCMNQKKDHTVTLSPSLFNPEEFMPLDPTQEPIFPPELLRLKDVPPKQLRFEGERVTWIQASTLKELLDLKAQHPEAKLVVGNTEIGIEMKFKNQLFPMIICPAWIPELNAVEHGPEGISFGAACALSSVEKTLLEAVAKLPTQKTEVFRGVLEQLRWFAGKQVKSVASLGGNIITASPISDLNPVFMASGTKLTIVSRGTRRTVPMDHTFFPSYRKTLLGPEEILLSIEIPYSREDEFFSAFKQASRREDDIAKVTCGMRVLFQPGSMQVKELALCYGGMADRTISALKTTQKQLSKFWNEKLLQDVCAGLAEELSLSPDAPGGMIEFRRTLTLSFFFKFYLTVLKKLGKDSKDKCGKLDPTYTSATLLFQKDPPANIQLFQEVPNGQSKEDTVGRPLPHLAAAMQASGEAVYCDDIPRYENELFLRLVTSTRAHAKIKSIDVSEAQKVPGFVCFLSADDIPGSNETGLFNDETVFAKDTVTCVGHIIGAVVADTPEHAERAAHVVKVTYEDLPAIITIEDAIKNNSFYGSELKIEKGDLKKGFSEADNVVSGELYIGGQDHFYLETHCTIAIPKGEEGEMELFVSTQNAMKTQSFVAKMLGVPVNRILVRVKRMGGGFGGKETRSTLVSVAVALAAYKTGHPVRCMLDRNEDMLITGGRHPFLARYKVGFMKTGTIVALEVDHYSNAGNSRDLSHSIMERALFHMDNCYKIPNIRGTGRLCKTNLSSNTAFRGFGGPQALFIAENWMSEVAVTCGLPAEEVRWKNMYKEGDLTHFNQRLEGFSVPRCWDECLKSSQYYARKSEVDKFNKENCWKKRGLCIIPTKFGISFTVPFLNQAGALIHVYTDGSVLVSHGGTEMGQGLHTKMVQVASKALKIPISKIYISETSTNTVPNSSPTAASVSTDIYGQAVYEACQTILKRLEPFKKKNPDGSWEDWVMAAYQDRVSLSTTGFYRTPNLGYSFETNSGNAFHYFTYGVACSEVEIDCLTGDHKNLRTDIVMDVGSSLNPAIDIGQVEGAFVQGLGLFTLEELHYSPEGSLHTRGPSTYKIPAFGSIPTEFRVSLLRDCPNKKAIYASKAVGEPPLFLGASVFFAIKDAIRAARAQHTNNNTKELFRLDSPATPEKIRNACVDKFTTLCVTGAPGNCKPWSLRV

For `Nc1nc[nH]c(=O)c1Br`, in data set [1], the Km (as a rule, the concentration of substrate that gives half-maximal velocity) was 23.8 µM.
For `N=C1CCCN1Cc1nc[nH]c(=O)c1Cl`, the Km in data set [1] worked out at 64.9 µM.
Consider `O=c1[nH]cnc2[nH]ccc12`, for which, in data set [1], the Km came out at 45.1 µM.
Regarding `O=c1[nH]c(=O)c2cc[nH]c2[nH]1` [7-DEAZAXANTHINE], the values for the Ki in data set [2] and in data set [3] were 70 µM and 25 µM, respectively.
As for `Nc1[nH]c(=O)ncc1Br`, the Km in data set [1] came to 32.5 µM.
With `Nc1[nH]c(=O)[nH]c(=O)c1Br`, in data set [4], the half-maximal inhibitory concentration (IC50) (commonly the point on the concentration scale where inhibition reaches its midpoint) was 30 µM.
For `O=c1ncc2cc[nH]c2[nH]1`, the Michaelis constant (Km) in data set [1] came to 29.8 µM.
Consider `Nc1ncncc1Br`, for which, in data set [1], the Km turned out to be 44.4 µM.
